Where two headings read alike, the source gives them in different places.
What was measured:
[1] = Oral bioavailability (PO) and pharmacokinetics assay; type: in vivo, mice; conditions: mouse
Description: The pharmacokinetics and oral bioavailability of various compounds was evaluated following IV or PO administration to fasted male Sprague-Dawley […] (N=3/route/dose). […] For IV dosing, each compound was formulated in 10% DMA/15% Solutol/75% HPβ-CD (20%) as a 1 mg/mL solution for IV (3 mg/kg), for IP (5 mg/kg) and for PO (10 mg/kg) administrations.
Blood samples (0.250 mL) were collected into EDTA tubes then processed to generate plasma samples. Blood samples were collected at pre-dose, 0.083, 0.25, 0.5, 1, 2, 4, 8 and 24 hours post-dose administration. Plasma concentrations of each compound were determined using LC-MS/MS with a lower limit of quantitation of 1.0 ng/mL. The pharmacokinetic parameters were determined by non-compartmental methods using WinNonlin.
The pharmacokinetic parameters of each compound were determined by non-compartmental analysis (Model 201 for IV administration and Model 200 for PO administration) using WinNonlin Version 6.4 (Pharsight, Mountain View, Calif.). The area under the curve from the time of dosing to the last measurable concentration, AUC(0-t), was calculated by the linear trapezoidal rule. The area under the concentration-time curve extrapolated to infinity, AUC(0-∞), was calculated as follows: AUC(0-∞)=AUC(0-t)+Clast/k
Where Clast is the last measurable concentration and k is the first order rate constant associated with the terminal elimination phase, estimated by linear regression of log concentration versus time. The half-life (T1/2) of the terminal elimination phase was estimated based on the following equation: T1/2=0.693/k
K was determined based on at least three timepoints with R^2≥0.9. Additional parameters were calculated as follows: CL=Dose/AUC(0-∞)
Where CL is the clearance of the compound of the disclosure in L/hr/kg, Dose is the administered dose in mg/kg. Mean residence time (MRT) was calculated as follows: MRT=AUMC(0-∞)/AUC(0-∞)
Where area under the first moment curve extrapolated to infinity (AUMC0-∞)) was calculated as follows: AUMC(0-∞)=AUMClast+tlast*[…]+Clast/k^2
The steady state volume of distribution (Vss) was calculated as follows: Vss=CL×MRT.
The oral bioavailability based on AUC(0-t) was calculated as follows: F(%)=AUCPO/AUCIV×DoseIV/DosePO×100. For IV administration, the initial concentration, Co is reported and is an extrapolated value. For PO administration, the maximum concentration, Cmax is report and is an observed value.

AURKA (Aurora A) = AURKA (Aurora A) (Homo sapiens, UniProt O14965); assay: Kinase panel assay; type: biochemical
Excerpt: (§1) Compound 42 was also screened in a kinase panel assay.

PAK4 = PAK4 (Homo sapiens, UniProt O96013); assay: Kinase panel assay; type: biochemical
Excerpt: as §1

EGFR (ErbB1) = EGFR (ErbB1) (Homo sapiens, UniProt P00533); assay: Kinase panel assay; type: biochemical
Excerpt: as §1

GSK3B (GSK3 beta) = GSK3B (GSK3 beta) (Homo sapiens, UniProt P49841); assay: Kinase panel assay; type: biochemical
Excerpt: as §1

PLK1 = PLK1 (Homo sapiens, UniProt P53350); assay: Kinase panel assay; type: biochemical
Excerpt: as §1

MAPK1 (ERK2) = MAPK1 (ERK2) (Homo sapiens, UniProt P28482); assay: Kinase panel assay; type: biochemical
Excerpt: as §1

MAPK14 (p38 alpha) = MAPK14 (p38 alpha) (Homo sapiens, UniProt Q16539); assay: Kinase panel assay; type: biochemical
Excerpt: as §1

CDK6/CyclinD1 = CDK6/CyclinD1 (Homo sapiens, UniProt Q00534); assay: Kinase panel assay; type: biochemical
Excerpt: as §1

MAPK3 (ERK1) = MAPK3 (ERK1) (Homo sapiens, UniProt P27361); assay: Kinase panel assay; type: biochemical
Excerpt: as §1

ABL1 = ABL1 (Homo sapiens, UniProt P00519); assay: Kinase panel assay; type: biochemical
Excerpt: as §1

CDK2/Cyclin A = CDK2/Cyclin A (Homo sapiens, UniProt P24941); assay: Kinase panel assay; type: biochemical
Excerpt: as §1

PIM1 = PIM1 (Homo sapiens, UniProt P11309); assay: Kinase panel assay; type: biochemical
Excerpt: as §1

CDK4/CyclinD1 = CDK4/CyclinD1 (Homo sapiens, UniProt P11802); assay: Kinase panel assay; type: biochemical
Excerpt: as §1

CDK4/CyclinD3 = CDK4/CyclinD3 (Homo sapiens, UniProt P11802); assay: Kinase panel assay; type: biochemical
Excerpt: as §1

[2] = male, Sprague-Dawley, plasma, IP (5 mg/kg)
[3] = male, Sprague-Dawley, plasma, IV bolus (3 mg/kg)
[4] = male, Sprague-Dawley, plasma, PO (10 mg/kg)

Sequence of PLK1 (P53350 whole entry, species assumed): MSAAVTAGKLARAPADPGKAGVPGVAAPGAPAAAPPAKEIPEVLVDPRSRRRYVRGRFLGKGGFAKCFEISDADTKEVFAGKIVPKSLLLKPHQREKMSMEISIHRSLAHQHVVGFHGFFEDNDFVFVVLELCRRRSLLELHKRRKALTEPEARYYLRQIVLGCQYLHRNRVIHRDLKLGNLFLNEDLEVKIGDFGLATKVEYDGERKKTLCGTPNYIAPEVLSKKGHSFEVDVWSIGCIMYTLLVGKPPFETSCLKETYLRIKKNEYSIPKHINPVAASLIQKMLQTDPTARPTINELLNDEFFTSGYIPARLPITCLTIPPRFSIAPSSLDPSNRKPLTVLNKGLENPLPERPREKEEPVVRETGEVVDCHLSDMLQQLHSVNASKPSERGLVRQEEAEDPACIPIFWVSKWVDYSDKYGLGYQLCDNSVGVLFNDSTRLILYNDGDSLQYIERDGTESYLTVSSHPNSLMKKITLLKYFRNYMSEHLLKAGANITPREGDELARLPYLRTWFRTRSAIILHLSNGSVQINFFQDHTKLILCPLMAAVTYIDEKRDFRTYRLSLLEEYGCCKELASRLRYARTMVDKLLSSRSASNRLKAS
Sequence of MAPK3 (ERK1) (P27361 whole entry, species assumed): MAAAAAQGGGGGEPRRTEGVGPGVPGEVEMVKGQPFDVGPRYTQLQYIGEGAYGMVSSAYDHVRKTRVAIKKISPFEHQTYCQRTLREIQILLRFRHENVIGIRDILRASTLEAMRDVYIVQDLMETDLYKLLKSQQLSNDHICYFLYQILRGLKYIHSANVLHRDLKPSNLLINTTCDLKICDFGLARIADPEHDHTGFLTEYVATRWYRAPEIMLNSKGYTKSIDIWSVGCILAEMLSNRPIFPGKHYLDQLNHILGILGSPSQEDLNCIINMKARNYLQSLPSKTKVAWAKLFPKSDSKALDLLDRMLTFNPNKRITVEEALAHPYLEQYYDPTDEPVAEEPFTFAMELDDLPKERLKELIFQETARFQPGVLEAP
Sequence of GSK3B (GSK3 beta) (P49841 whole entry, species assumed): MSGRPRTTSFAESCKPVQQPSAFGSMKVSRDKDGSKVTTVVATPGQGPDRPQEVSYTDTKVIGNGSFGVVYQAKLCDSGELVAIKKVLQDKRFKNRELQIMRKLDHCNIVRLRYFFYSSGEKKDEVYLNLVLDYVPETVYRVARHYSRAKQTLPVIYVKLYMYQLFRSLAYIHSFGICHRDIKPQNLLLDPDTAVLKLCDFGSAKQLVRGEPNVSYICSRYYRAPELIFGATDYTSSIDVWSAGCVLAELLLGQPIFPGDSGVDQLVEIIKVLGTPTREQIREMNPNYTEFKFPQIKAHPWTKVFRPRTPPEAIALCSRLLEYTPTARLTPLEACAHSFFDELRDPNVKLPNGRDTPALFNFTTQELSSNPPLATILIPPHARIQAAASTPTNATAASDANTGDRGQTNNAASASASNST
Sequence of ABL1 (P00519 whole entry, species assumed): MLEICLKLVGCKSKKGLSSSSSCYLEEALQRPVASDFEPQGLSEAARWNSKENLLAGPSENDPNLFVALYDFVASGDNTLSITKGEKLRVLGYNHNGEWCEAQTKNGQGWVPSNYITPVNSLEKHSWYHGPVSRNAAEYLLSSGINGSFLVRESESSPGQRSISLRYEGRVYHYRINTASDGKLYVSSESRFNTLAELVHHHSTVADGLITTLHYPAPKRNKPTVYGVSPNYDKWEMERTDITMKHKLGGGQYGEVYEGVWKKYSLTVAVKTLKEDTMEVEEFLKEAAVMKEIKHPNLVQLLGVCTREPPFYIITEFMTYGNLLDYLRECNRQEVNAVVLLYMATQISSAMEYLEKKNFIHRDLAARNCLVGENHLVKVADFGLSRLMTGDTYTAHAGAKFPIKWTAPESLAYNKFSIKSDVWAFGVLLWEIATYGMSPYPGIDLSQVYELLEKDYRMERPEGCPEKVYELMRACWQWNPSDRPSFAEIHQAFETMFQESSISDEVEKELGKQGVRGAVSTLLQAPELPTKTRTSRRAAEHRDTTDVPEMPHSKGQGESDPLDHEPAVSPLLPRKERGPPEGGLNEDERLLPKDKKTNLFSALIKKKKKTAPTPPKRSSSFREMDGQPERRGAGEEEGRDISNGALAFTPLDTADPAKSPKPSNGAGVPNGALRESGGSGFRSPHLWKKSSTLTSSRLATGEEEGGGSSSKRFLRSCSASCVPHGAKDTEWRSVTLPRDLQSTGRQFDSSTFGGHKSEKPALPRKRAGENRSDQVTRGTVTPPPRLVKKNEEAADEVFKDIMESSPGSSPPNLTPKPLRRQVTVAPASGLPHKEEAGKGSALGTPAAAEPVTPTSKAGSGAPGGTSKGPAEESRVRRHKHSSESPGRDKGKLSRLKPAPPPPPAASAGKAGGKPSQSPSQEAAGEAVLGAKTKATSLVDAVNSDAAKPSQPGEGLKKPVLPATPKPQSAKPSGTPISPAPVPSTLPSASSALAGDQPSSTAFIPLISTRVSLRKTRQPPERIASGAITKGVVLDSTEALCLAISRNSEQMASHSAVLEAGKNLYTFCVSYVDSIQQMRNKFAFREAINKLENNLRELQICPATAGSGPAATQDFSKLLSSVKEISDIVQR
Sequence of EGFR (ErbB1) (P00533 25-1210, species assumed): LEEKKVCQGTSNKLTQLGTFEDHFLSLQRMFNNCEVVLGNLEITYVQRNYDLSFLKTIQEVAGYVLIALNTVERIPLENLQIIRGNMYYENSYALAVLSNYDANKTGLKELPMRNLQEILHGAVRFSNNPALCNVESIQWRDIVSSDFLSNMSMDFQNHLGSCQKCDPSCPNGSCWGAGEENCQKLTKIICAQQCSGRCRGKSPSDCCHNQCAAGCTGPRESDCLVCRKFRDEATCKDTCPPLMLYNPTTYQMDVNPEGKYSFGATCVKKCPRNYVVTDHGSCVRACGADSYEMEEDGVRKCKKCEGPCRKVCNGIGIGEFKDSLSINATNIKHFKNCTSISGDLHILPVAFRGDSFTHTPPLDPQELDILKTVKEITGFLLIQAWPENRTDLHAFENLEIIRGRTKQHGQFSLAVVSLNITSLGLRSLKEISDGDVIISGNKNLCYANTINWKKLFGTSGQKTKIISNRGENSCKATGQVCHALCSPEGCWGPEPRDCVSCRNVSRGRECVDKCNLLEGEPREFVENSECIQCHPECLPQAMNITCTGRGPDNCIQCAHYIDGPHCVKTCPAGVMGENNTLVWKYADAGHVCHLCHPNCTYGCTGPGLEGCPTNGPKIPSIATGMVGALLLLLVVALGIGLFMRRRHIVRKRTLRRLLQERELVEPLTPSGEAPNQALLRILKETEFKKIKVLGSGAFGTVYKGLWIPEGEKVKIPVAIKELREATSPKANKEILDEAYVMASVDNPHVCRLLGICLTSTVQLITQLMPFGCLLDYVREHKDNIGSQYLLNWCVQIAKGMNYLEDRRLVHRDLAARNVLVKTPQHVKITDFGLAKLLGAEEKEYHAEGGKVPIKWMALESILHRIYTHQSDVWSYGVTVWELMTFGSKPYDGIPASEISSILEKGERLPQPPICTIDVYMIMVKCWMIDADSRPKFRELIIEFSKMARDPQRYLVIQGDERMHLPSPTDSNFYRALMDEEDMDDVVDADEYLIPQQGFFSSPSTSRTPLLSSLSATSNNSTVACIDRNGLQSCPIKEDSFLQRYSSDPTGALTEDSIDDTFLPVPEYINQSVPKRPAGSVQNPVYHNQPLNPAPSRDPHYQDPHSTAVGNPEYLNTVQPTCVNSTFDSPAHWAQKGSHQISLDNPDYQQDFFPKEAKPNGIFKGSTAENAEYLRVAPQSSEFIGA
Sequence of MAPK14 (p38 alpha) (Q16539 whole entry, species assumed): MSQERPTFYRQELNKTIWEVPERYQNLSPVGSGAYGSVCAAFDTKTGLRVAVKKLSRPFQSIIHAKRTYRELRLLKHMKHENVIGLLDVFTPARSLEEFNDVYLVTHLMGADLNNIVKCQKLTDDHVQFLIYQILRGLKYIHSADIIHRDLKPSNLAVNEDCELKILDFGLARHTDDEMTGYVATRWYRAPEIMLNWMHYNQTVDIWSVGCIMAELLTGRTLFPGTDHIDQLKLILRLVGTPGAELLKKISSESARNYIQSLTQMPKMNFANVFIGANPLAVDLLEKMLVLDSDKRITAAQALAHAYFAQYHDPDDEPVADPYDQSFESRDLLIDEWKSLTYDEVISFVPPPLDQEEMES
Sequence of PIM1 (P11309 whole entry, species assumed): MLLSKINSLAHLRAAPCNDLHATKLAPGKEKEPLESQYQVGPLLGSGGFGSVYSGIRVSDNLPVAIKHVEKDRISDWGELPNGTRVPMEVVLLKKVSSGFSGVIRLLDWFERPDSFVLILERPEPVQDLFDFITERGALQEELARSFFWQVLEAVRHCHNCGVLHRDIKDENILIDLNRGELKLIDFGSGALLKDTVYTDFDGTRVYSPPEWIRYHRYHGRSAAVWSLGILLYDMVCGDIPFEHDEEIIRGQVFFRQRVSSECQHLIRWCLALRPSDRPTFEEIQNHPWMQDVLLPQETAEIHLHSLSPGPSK
Sequence of CDK4/CyclinD1 (P11802 whole entry, species assumed): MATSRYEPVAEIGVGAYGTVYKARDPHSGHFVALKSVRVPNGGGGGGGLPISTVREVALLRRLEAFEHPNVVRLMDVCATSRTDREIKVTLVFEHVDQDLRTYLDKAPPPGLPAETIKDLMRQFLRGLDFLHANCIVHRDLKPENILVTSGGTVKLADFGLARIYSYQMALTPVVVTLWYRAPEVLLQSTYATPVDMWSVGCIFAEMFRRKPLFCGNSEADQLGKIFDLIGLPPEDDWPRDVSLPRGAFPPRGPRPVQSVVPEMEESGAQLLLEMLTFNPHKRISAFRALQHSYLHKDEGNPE
Sequence of CDK4/CyclinD1 (P24385 whole entry partner, species assumed): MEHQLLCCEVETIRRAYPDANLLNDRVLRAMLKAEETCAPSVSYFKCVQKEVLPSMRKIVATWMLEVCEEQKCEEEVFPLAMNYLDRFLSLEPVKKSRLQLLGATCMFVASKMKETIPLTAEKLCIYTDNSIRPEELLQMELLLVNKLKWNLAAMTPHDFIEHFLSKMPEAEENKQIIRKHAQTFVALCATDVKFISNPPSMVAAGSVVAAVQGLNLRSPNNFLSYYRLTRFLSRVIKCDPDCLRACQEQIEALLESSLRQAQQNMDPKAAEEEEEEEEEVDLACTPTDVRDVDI

`Cc1ccccc1C(=O)Nc1nc(NC(=O)c2ccccc2C)n(-c2ccc(OC(F)(F)F)cc2)n1` [Compound 42, N,N′-(1-(4-(trifluoromethoxy)phenyl)-1H-1,2,4-triazole-3,5-diyl)bis(2-methylbenzamide)] gave a bioavailability ([1]; male, Sprague-Dawley, plasma, intraperitoneal, 5 mg/kg, IP (5 mg/kg) vs IV, read-out: F (%)) of 50.3%, a half-life ([1]; male, Sprague-Dawley, plasma, ip, 5 mg/kg, IP (5 mg/kg)) of 47 h and a half-life ([1]; male, Sprague-Dawley, plasma, iv, 3 mg/kg) of 16 h. It also gave a half-life ([1]; male, Sprague-Dawley, plasma, iv, 3 mg/kg, IV bolus (3 mg/kg)) of 16.4 h, a Vd ([1]; male, Sprague-Dawley, plasma, iv, 3 mg/kg, IV bolus (3 mg/kg), read-out: Vss) of 1.3 L/kg and a bioavailability ([1]; male, Sprague-Dawley, plasma, oral, 10 mg/kg, PO (10 mg/kg) vs IV, read-out: F (%) oral bioavailability) of 21%. For the same molecule, the half-life ([1]; male, Sprague-Dawley, plasma, po, 10 mg/kg, PO (10 mg/kg)) was 25 h, the AUC(0-t) [1, 2] was 21.5 µg·h/mL and the Cmax [1, 2] was 1.4 µg/mL. For the same molecule, the Tmax [1, 2] was 1.33 h, the AUC(0-t) [1, 3] was 25.7 µg·h/mL and the clearance [1, 3] was 0.0894 L/h/kg. The C0 ([1]; male, Sprague-Dawley, plasma, IV bolus (3 mg/kg), extrapolated value) was 40.5 µg/mL, the AUC(0-t) [1, 4] was 18.4 µg·h/mL and the Cmax [1, 4] was 1.06 µg/mL. The Tmax [1, 4] was 3.67 h, the “Vss” value ([1]; IV bolus (3 mg/kg), 3 mg/kg) was 1.32 L/kg and the IV clearance ([1]; IV, in words) was “reasonable”. For the same molecule, the “F (%) oral bioavailability” value ([1]; PO (10 mg/kg) vs IV, 10 mg/kg) was 21.4%, the inhibition at 10 µM (AURKA (Aurora A)) was 4% and the inhibition at 10 µM (PAK4) was 5%. The inhibition at 10 µM (EGFR (ErbB1)) was 8%, the inhibition at 10 µM (GSK3B (GSK3 beta)) was 12% and the inhibition at 10 µM (PLK1) was 4%. The inhibition at 10 µM (MAPK1 (ERK2)) was 4%, the inhibition at 10 µM (MAPK14 (p38 alpha)) was 19% and the inhibition at 10 µM (CDK6/CyclinD1) was 0%. For the same molecule, the inhibition at 10 µM (MAPK3 (ERK1)) was 1%, the inhibition at 10 µM (ABL1) was 8% and the inhibition at 10 µM (CDK2/Cyclin A) was 4%. It also gave an inhibition at 10 µM (PIM1) of 5%, an inhibition at 10 µM (CDK4/CyclinD1) of 12% and an inhibition at 10 µM (CDK4/CyclinD3) of 3%.

Reference: patent publication US10889553B2, “Asymmetric triazole benzamide derivatives and the compositions and methods of treatment regarding the same” (NysnoBio Ireland DAC, priority 2017, dated 2021)
